For test [1], the system named is cAMP-dependent Cl− short-circuit current of mouse colon tissue. The note with it: 100 μM bumetanide, basolateral side. The protocol:
Mice were 32 to 38 weeks old and weighed 23 to 36 g. Pups were weaned at 21 days and fed solid mouse chow (Teklad 2018S, Harland). All mice were allowed food and water ad libitum until the time of sacrifice by cervical dislocation. Colons were dissected, cut in 4 pieces from rectum to lower intestine. The fragments from colon were introduced immediately into Ussing chambers for subsequent short-circuit experiments.
Transepithelial transport measurements were performed as described previously^33 in the short-circuit mode (6 mice and 17 tissus). […] The excised colon were stripped of external muscle layers and mounted in Ussing chambers (0.018 cm^2 aperture). Hemichambers were connected to a DVC-1000 voltage clamp (World Precision Instruments, Inc., Sarasota, Fla.) via Ag/AgCl electrodes and 3 M KCl agar bridges for recording of short-circuit current. Currents were stored on a computer using analog-to-digital converter (PowerLab) and LabChart software 5.0. Prior to the experiment, prostaglandin generation was blocked with 10 μM indomethacin on the apical and basolateral sides (incubation of tissue for 30 min before the beginning of the experiment). Transepithelial Isc was calculated as μEq cm^−2 tissue surface area. The apical and basolateral solutions contained (in mM): 116 NaCl, 25 NaHCO3, 1.2 CaCl2, 1.2 MgCl2, 2,4 […], 0,4 KH2PO4, 10 glucose and was gassed with 95% O2-5% CO2 (pH 7.4).

Test [2] concerns the target CFTR (WT-CFTR) Cl− channel (Homo sapiens, UniProt P13569). Type of test: cell-based.
A further test addresses ΔF508-NBD1 of CFTR (Homo sapiens, UniProt P13569, DEL508-508). It counts as binding.
Another test deals with ΔF508-CFTR (Homo sapiens, UniProt P13569, DEL508-508). It counts as cell-based. The note with it: after corrector and CB; inh172 and glibenclamide as a mixture.
The target in the next test is CFTR channels (WT-CFTR) (Homo sapiens, UniProt P13569). It counts as cell-based. The note with it: 100 μM glibenclamide and 10 μM inh172. The text has this: HeLa cells stably transfected with WT-CFTR were kindly provided by Pascale Fanen (INSERM U955, Créteil, France). The intracellular side of the membrane patch was exposed to a solution containing (in mM): 150 N-methyl-D-gluconate chloride (NMDG-Cl), 0.5 MgCl2, 2 EGTA, 10 HEPES, 10 glucose, pH 7.4, adjusted to pH 7.4 with NMDG. The patch pipettes were filled with (in mM): 150 NMDG-Cl, 0.5 MgCl2, 2 EGTA, 10 HEPES, 10 glucose, 1 ATP-Mg adjusted to pH 7.4 with NMDG. CFTR channels were activated by addition of 40 nM PKA+1 mM ATP-Mg at the intracellular side of the patches. The presence of CFTR channels was verified by addition of 100 μM glibenclamide and 10 μM inh172. The effect of CB was tested by perfusion of 1 nM of CB in the intracellular solution in the presence of 40 nM PKA+0.05, 0.5, or 1 mM ATP-Mg. The currents were recorded as previously described^34. […] Currents were recorded with Bio-logic RK 400 patch-clamp amplifiers (Bio-Logic, Claix, France), monitored using PClamp9 software (Axon Instruments, Foster City, Calif., USA) and stored on a computer. […] We calculated channel activity (NPo) as <I>/i, where <I> is the time-averaged current passing through the channels on the patch with the closed current level as reference and i is the unit current amplitude.

The target of test [3] is human ΔF508-NBD1 (NBD1 domain of CFTR with deletion of Phe508) (human, UniProt P13569 389-678).
Test [4] deals with recombinant, purified human NBD1 (nucleotide binding domain 1) of CFTR, wild type (human, UniProt P13569 389-678).

The record followed here is patent US20190391160A1 (INSTITUT PASTEUR, published 2019).

“Also recorded” adds a separate entry of the source.

Sequence of recombinant, purified human NBD1 (nucleotide binding domain 1) of CFTR, wild type (P13569 389-678 limits assumed): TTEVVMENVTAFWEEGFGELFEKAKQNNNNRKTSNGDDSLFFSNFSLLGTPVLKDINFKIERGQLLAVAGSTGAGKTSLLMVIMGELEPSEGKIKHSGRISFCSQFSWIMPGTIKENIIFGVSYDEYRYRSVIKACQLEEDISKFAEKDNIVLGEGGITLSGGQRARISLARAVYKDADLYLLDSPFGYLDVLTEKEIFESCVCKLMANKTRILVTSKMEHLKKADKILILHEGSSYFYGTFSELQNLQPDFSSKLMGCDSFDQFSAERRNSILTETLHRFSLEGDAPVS
Sequence of human ΔF508-NBD1 (NBD1 domain of CFTR with deletion of Phe508) (P13569 other isoform, or with tags, fused parts or gaps mutant limits assumed): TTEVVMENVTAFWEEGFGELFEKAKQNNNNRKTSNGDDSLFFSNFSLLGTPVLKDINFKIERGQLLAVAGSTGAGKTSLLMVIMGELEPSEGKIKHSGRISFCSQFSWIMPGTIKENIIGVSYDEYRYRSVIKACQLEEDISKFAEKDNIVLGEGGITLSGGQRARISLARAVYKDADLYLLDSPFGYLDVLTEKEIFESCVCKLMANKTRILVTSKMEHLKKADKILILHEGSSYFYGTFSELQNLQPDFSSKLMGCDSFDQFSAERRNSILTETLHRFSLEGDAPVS
Sequence of ΔF508-CFTR (P13569 with tags, fused parts or gaps DEL508-508): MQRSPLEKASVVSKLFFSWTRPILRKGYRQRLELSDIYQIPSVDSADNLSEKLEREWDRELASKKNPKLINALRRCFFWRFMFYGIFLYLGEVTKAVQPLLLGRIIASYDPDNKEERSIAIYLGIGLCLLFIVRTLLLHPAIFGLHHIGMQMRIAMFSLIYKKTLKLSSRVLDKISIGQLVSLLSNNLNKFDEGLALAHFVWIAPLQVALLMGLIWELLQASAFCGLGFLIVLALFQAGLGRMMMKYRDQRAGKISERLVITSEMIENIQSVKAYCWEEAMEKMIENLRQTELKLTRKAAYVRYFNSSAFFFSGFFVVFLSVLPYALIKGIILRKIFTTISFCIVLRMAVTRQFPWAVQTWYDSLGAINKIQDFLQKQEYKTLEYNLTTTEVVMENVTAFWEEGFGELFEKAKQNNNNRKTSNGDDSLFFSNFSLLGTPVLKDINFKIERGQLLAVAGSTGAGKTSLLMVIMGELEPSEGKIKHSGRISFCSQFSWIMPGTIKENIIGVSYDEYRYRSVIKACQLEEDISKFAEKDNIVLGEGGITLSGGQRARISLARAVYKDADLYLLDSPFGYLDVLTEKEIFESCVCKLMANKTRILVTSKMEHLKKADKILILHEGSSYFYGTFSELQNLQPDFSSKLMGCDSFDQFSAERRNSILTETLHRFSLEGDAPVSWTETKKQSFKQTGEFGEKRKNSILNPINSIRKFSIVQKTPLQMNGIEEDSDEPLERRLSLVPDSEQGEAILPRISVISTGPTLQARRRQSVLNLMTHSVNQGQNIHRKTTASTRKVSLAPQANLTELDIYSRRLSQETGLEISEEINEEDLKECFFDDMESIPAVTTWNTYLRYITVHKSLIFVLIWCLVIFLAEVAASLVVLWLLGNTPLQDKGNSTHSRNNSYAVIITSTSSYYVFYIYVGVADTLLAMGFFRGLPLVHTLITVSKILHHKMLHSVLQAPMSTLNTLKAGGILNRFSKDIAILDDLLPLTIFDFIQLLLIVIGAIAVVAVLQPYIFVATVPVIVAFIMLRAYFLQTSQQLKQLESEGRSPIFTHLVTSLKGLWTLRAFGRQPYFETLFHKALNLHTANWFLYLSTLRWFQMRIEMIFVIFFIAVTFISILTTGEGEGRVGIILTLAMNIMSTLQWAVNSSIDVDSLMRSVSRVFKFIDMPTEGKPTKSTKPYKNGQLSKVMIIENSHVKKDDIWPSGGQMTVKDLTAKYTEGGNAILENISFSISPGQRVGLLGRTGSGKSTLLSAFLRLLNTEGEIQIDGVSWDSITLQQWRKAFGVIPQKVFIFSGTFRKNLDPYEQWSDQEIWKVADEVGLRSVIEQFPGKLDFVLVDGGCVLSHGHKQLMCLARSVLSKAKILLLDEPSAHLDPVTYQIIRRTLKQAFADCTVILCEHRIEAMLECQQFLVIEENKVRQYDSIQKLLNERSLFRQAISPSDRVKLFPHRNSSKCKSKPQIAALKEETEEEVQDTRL
Sequence of ΔF508-NBD1 of CFTR (P13569 with tags, fused parts or gaps DEL508-508 limits assumed): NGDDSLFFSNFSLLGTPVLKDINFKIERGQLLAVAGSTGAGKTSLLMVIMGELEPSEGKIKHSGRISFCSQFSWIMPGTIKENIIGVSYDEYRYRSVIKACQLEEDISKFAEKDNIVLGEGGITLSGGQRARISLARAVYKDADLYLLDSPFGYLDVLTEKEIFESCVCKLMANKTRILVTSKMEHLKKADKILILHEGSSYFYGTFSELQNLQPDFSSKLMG
Sequence of CFTR channels (WT-CFTR) (P13569 whole entry, the tested form may be a part): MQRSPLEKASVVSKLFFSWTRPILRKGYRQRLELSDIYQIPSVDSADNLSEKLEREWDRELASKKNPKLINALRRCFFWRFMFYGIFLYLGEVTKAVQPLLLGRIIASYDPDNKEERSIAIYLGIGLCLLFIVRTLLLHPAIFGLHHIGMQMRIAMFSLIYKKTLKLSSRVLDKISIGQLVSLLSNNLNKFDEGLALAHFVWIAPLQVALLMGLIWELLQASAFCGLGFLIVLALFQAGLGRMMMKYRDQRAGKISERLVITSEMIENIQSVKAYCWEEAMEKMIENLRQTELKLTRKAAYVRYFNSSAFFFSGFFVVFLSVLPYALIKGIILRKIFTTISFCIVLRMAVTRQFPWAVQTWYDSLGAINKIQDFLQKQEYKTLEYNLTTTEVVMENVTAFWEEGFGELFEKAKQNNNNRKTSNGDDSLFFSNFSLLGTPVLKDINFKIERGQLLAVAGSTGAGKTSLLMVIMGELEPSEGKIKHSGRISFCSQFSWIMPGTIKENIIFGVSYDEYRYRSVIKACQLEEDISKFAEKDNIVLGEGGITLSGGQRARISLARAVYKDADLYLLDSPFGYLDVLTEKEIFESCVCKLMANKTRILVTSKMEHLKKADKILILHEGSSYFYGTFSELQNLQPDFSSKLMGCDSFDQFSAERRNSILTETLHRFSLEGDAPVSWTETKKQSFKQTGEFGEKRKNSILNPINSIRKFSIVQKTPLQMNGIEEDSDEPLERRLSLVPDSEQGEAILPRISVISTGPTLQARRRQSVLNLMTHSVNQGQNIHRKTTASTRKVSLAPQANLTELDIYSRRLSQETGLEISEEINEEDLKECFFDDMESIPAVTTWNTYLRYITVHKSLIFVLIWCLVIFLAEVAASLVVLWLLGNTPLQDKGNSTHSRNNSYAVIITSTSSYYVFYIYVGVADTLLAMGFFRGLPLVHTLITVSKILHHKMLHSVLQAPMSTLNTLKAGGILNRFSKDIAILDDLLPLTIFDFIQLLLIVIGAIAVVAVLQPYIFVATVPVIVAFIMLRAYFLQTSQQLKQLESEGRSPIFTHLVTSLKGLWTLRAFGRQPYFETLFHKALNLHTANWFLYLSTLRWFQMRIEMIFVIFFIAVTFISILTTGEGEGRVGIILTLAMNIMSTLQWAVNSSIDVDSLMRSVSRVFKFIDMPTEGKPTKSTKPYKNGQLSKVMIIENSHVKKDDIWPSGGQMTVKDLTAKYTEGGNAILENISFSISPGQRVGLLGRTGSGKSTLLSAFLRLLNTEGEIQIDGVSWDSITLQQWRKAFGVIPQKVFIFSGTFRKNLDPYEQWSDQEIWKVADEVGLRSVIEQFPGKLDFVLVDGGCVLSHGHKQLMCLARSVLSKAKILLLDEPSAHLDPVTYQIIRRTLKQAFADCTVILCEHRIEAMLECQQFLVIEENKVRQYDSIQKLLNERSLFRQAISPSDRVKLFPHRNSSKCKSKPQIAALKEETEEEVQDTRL
Sequence of CFTR (WT-CFTR) Cl− channel (P13569 whole entry): as the sequence (P13569 whole entry, the tested form may be a part) above

As for `CCCCNc1cc(C(=O)O)cc(S(N)(=O)=O)c1Oc1ccccc1` [bumetanide], the “inhibition of the CB-induced Isc increase” value in test [1] is “inhibited”.

On to `CCCCC/C=C\C/C=C\C/C=C\C/C=C\CCCC(=O)O` [arachidonic acid], for which the “effect on IcAMP (CFTR-Cl− current)” value in test [2] was “no effect on IcAMP”.

NAVPFYAFYGCYCGWGGQ: at ΔF508-NBD1 of CFTR, the “binding of peptide to mutated NBD1” value is recorded as “has shown interaction; also recorded: interacts with ΔF508-NBD1”. Further, the “Cl− channel current” value in the test on Cl— channel current was “increased; also recorded: increases Cl— channel current”.

Regarding glyH101, at ΔF508-CFTR, the “inhibition of the CB-potentiated current” value was “inhibited”.

`COc1ccc(Cl)cc1C(=O)NCCc1ccc(S(=O)(=O)NC(=O)NC2CCCCC2)cc1` [glibenclamide]: on ΔF508-CFTR, the “inhibition of the CB-potentiated current” value is listed as “only slightly”. Further, the “inhibition of the activated channels” value against CFTR channels (WT-CFTR) is “inhibited”.

B1: recombinant human non-pancreatic secreted phospholipase A2 group IIA (enzyme, UniProt P14555 21-144, looked up)
chain: NLVNFHRMIKLTTGKEAALSYGFYGCHCGVGGRGSPKDATDRCCVTHDCCYKRLEKRGCGTKFLSYKFSNSGSRITCAKQDSCRSQLCECDKAAATCFARNKTTYNKKYQYYSNKHCRGSTPRC
As for B1, in test [3], the Kd (as a rule, the constant that tells how readily two partners part at equilibrium) stood at 37 nM; the koff (usually the first-order rate constant of dissociation) turned out to be 0.0066 s⁻¹; the kon (usually the rate constant with which the complex forms) turned out to be 180000 M⁻¹ s⁻¹. Moreover, in test [4], the Kd turned out to be 35 nM, the koff was found to be 0.0021 s⁻¹ and the kon came to 59000 M⁻¹ s⁻¹.
